Measurements as given in US20020137929A1, “1 - (3-heterocyclylphenyl) isothiourea, -isourea, -guanidine and -amidine herbicidal agents” (Intellectual Property Department, BASF Aktiengesellschaft, priority 1998, published 2002).

How the values were obtained:
[1] = system: AMBEL (Ragweed, Common); test: Preemergence herbicidal evaluation; format: in vivo, Ambrosia artemisifolia; conditions: rated 4-5 weeks after treatment
Procedure, shortened: (§1)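 Greenhouse preemergence test: seed-soil mix sown on ~1 inch soil; aqueous acetone spray at equivalent of ~0.0156–0.500 kg/ha; greenhouse-held and watered; scored 0–9 visually at 4–5 weeks.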

[2] = system: CYPSE (Flatsedge); test: Postemergence weed control under flooded paddy conditions; format: in vivo, Cyperus serotinus; conditions: postemergence weeds, 3-4 weeks after treatment
Excerpt: Results of herbicide evaluation are expressed on a rating scale (0-9). The scale is based upon a visual observation of plant stand, vigor, malformation, size, chlorosis and overall plant appearance as compared with a control.
Plastic containers containing weeds which are 3 to 5 cm tall and rice seedlings at the 1.5 to 2.5 leaf stage are flooded with water. The water is maintained at 1.5 to 3 cm above the soil surface for the duration of the experiment. Test compounds are applied as aqueous/ acetone mixtures 50/50 v/v directly into the flood water to provide the equivalent of about 0.0313 to 0.500 kg/ha of active ingredient. The treated containers are placed on greenhouse benches and cared for in accordance with conventional greenhouse procedures. Three to four weeks after treatment, the test is terminated and each container is examined and herbicidal effect rated according to the rating system provided in Example 37. The compounds evaluated are reported by compound number given in Example 37.

[3] = system: ECHCG (Barnyardgrass); test: Postemergence herbicidal evaluation; format: in vivo, Echinochloa crus-galli; conditions: postemergence
Procedure, shortened: (§2)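 Scores (0–9) reflect plant stand, vigor, malformation, size, chlorosis and general appearance relative to control, read 4 to 5 weeks after treatment and averaged where tests were repeated. Application: about 0.0156–0.500 kg/ha sprayed at 40 psi onto two-week seedlings.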

[4] = system: CYPSE (Flatsedge); test: Preemergence weed control under flooded paddy conditions; format: in vivo, Cyperus serotinus; conditions: rated 3-4 weeks after treatment
Procedure, shortened: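 Greenhouse paddy assay. Acetone/water (50/50 v/v) solutions dosed into flood water, equivalent to about 0.0313 to 0.500 kg/ha active ingredient, over seeds planted 0.5 cm deep in silt loam. Score: 0-9 visual, based on stand, vigor, malformation, size and chlorosis, 3 to 4 weeks after treatment.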

[5] = system: CASOB (Sicklepod); test: Preemergence herbicidal evaluation; format: in vivo, Cassia obtusifolia; conditions: rated 4-5 weeks after treatment
Procedure, shortened: as §1

[6] = system: ORYSAT (Rice, Tebonnet); test: Postemergence herbicidal evaluation; format: in vivo, Oryza sativa, (L.) Tebonnet; conditions: postemergence
Procedure, shortened: as §2

[7] = system: CHEAL (Lambsquarters, Common); test: Postemergence herbicidal evaluation; format: in vivo, Chenopodium album; conditions: postemergence
Procedure, shortened: as §2

[8] = system: AMBEL (Ragweed, Common); test: Postemergence herbicidal evaluation; format: in vivo, Ambrosia artemisifolia; conditions: postemergence
Procedure, shortened: as §2

[9] = system: CYPIR (Rice Flatsedge); test: Postemergence weed control under flooded paddy conditions; format: in vivo, Cyperus iria; conditions: postemergence weeds, 3-4 weeks after treatment
Procedure, shortened: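 Containers holding 3–5 cm weeds and rice at 1.5–2.5 leaves are flooded to 1.5–3 cm above soil. Compound in 50/50 v/v aqueous/acetone is then added directly to the water, about 0.0313–0.500 kg/ha. Plants are kept in the greenhouse and rated 0–9 visually at 3–4 weeks.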

[10] = system: ZEAMX (Corn, Field); test: Postemergence herbicidal evaluation; format: in vivo, Zea mays; conditions: postemergence
Procedure, shortened: as §2

[11] = system: ABUTH (Velvetleaf); test: Postemergence herbicidal evaluation; format: in vivo, Abutilon theophrasti; conditions: postemergence
Procedure, shortened: as §2

[12] = system: CHEAL (Lambsquarters, Common); test: Preemergence herbicidal evaluation; format: in vivo, Chenopodium album; conditions: rated 4-5 weeks after treatment
Procedure, shortened: as §1

CN1C(=O)C(F)SC1=Nc1cc(N2C(=O)C3=C(CCCC3)C2=O)c(F)cc1Cl (stereo not drawn) [Compound 5, N-{4-chloro-2-fluoro-5-[(5-fluoro-3-methyl-4-oxo-2-thiazolidinylidene)amino]phenyl}-1-cyclohexene-1,2-dicarboximide]
AMBEL preemergence herbicidal rating ([1]; rate 0.0625 kg/ha): 0.0
AMBEL preemergence herbicidal rating ([1]; rate 0.1250 kg/ha): 0.0
AMBEL preemergence herbicidal rating ([1]; rate 0.2500 kg/ha): 0.0
AMBEL preemergence herbicidal rating ([1]; rate 0.5000 kg/ha): 0.0
Herbicidal rating CYPSE ([2]; rate 0.1250 kg/ha): 0.0
Herbicidal rating CYPSE ([2]; rate 0.2500 kg/ha): 0.0
Herbicidal rating CYPSE ([2]; rate 0.5000 kg/ha): 0.5
ECHCG herbicidal rating ([3]; rate 0.0157 kg/ha): 0.0
ECHCG herbicidal rating ([3]; rate 0.0313 kg/ha): 0.0
ECHCG herbicidal rating ([3]; rate 0.0625 kg/ha): 0.0
ECHCG herbicidal rating ([3]; rate 0.1250 kg/ha): 3.0
ECHCG herbicidal rating ([3]; rate 0.2500 kg/ha): 4.0
ECHCG herbicidal rating ([3]; rate 0.5000 kg/ha): 2.0
Herbicidal rating CYPSE ([4]; 0.1250 kg/ha): 0.0
Herbicidal rating CYPSE ([4]; 0.2500 kg/ha): 0.0
Herbicidal rating CYPSE ([4]; 0.5000 kg/ha): 1.0
CASOB preemergence herbicidal rating ([5]; rate 0.0625 kg/ha): 0.0
CASOB preemergence herbicidal rating ([5]; rate 0.1250 kg/ha): 0.0
CASOB preemergence herbicidal rating ([5]; rate 0.2500 kg/ha): 0.0
CASOB preemergence herbicidal rating ([5]; rate 0.5000 kg/ha): 0.0
ORYSAT herbicidal rating ([6]; rate 0.0157 kg/ha): 1.5
ORYSAT herbicidal rating ([6]; rate 0.0313 kg/ha): 1.5
ORYSAT herbicidal rating ([6]; rate 0.0625 kg/ha): 2.5
ORYSAT herbicidal rating ([6]; rate 0.1250 kg/ha): 2.5
ORYSAT herbicidal rating ([6]; rate 0.2500 kg/ha): 2.5
ORYSAT herbicidal rating ([6]; rate 0.5000 kg/ha): 2.5
CHEAL herbicidal rating ([7]; rate 0.0157 kg/ha): 2.0
CHEAL herbicidal rating ([7]; rate 0.0313 kg/ha): 2.0
CHEAL herbicidal rating ([7]; rate 0.0625 kg/ha): 6.0
CHEAL herbicidal rating ([7]; rate 0.1250 kg/ha): 9.0
CHEAL herbicidal rating ([7]; rate 0.2500 kg/ha): 8.0
CHEAL herbicidal rating ([7]; rate 0.5000 kg/ha): 9.0
AMBEL herbicidal rating ([8]; rate 0.0157 kg/ha): 0.0
AMBEL herbicidal rating ([8]; rate 0.0313 kg/ha): 0.0
AMBEL herbicidal rating ([8]; rate 0.0625 kg/ha): 0.0
AMBEL herbicidal rating ([8]; rate 0.1250 kg/ha): 0.0
AMBEL herbicidal rating ([8]; rate 0.2500 kg/ha): 2.0
AMBEL herbicidal rating ([8]; rate 0.5000 kg/ha): 9.0
Herbicidal rating CYPIR ([9]; rate 0.1250 kg/ha): 0.0
Herbicidal rating CYPIR ([9]; rate 0.2500 kg/ha): 0.0
Herbicidal rating CYPIR ([9]; rate 0.5000 kg/ha): 0.0
ZEAMX herbicidal rating ([10]; rate 0.0157 kg/ha): 3.5
ZEAMX herbicidal rating ([10]; rate 0.0313 kg/ha): 3.5
ZEAMX herbicidal rating ([10]; rate 0.0625 kg/ha): 4.0
ZEAMX herbicidal rating ([10]; rate 0.1250 kg/ha): 3.5
ZEAMX herbicidal rating ([10]; rate 0.2500 kg/ha): 4.0
ZEAMX herbicidal rating ([10]; rate 0.5000 kg/ha): 3.5
ABUTH herbicidal rating ([11]; rate 0.0157 kg/ha): 1.0
ABUTH herbicidal rating ([11]; rate 0.0313 kg/ha): 2.0
ABUTH herbicidal rating ([11]; rate 0.0625 kg/ha): 9.0
ABUTH herbicidal rating ([11]; rate 0.1250 kg/ha): 9.0
ABUTH herbicidal rating ([11]; rate 0.2500 kg/ha): 9.0
ABUTH herbicidal rating ([11]; rate 0.5000 kg/ha): 9.0
CHEAL preemergence herbicidal rating ([12]; rate 0.0625 kg/ha): 4.0
CHEAL preemergence herbicidal rating ([12]; rate 0.1250 kg/ha): 5.0
CHEAL preemergence herbicidal rating ([12]; rate 0.2500 kg/ha): 9.0
CHEAL preemergence herbicidal rating ([12]; rate 0.5000 kg/ha): 9.0
